The test system of this assay is Aβ1-40-induced AD rats. Nature of the assay: Morris Water Maze Test on Aβ1-40-induced AD rats. In kind it is in vivo, Sprague-Dawley male rats. The settings on record: for Arrival Time of Platform: Donepezil 1 mg/kg by stomach tube once per day. The procedure: The control group was injected with 5 μL of saline. […] From the fourth week after the administration, learning and memory-related behavior was assessed using the Morris Water Maze Test on ten rats arbitrarily-chosen from each group once a day for one week (from day 1 to day 6 the time to arrive at the platform is measured, and on day 7 the platform is removed and the frequency to cross (pass by) the platform location is counted). After completing the behavioral test, the rats were sacrificed. The cerebral tissues separated from half of the rats of each group were used for pathological examination, and the olfactory bulb, hippocampus, locus ceruleus, and cerebral cortex from another half were used to determine the NGF content with enzyme-linked immunosorbent assay (ELISA).

Values joined by “and” are separate entries in the source; they are usually repeats but may differ in a detail not shown here. Equal entries are not always repeated.

`COc1cc2c(cc1OC)C(=O)C(CC1CCN(Cc3ccccc3)CC1)C2` (centres unmarked) [Donepezil]: the “Arrival Time of Platform” value came to 77.03 ± 29.92 s (Day 1, n = 10); 39.10 ± 26.36 s (Day 2, n = 10); 34.98 ± 23.42 s (Day 3, n = 10); 31.10 ± 23.26 s (Day 4, n = 10); 30.00 ± 21.11 s (Day 5, n = 10); 28.43 ± 23.45 s (Day 6, n = 10). Moreover, the “Frequencies of crossing platform location within two minutes” value (day 7, individual rats No. 1-10, Donepezil 1 mg/kg) is 14 and 11 and 22 and 19 and 10 (2×) and 13 and 8 and 6 and 7. Further, the “Frequencies of crossing platform location within two minutes, Mean ± SD” value (day 7, n = 10, Donepezil 1 mg/kg) worked out at 12.00 ± 5.16.

The record behind these values is US8871492B2, “Anti-dementia substance from Hericium erinaceum and method of extraction” (priority 2008, dated 2014).
